The target in data set [1] is T1, Peptidyl-prolyl cis-trans isomerase A (Homo sapiens, UniProt P62937). Description: Inhibition of PPIase activity of Cyclophilin A by Spectrophotometry.
For data set [2], the target named is T1, Peptidyl-prolyl cis-trans isomerase A. Description: Binding affinity to Cyclophilin A.
Target sequence in this assay (P62937 whole entry): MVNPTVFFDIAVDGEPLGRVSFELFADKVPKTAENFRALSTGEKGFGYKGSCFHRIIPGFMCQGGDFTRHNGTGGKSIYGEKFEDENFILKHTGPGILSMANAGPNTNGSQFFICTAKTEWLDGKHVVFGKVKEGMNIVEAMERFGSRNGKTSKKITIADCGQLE
Data set [3] has as its system Human immunodeficiency virus 1. Description: Antiviral activity against HIV1 3B infected in human MT2 cells assessed as inhibition of viral replication at 1 mM after 48 hrs by flow cytometry. Type of data set: functional. The following applies: Human immunodeficiency virus 1, 3B, MT2, 48 h.
A further data set deals with SK-HEP1. Description: Cytotoxicity against human SKHEP1 cells upto 100 uM after 48 hrs by MTT assay. The following applies: sk-hep1, 48 h. Type of data set: cell-based. In general terms: Formazan colour is commonly taken as a measure of viable cells.

Where a SMILES comes first, the peptide text is derived from it.

As a reminder, the IC50 is the concentration that gives 50% inhibition. By Kd is commonly meant the equilibrium constant for the complex coming apart. As for `N[C@@H](Cc1ccc(O)cc1)C(=O)NCC(=O)N1CCC[C@H]1C(=O)O` (H-Tyr-Gly-Pro-OH), in data set [1], the IC50 result is listed as “Not Active”. Moreover, the Kd result in data set [2] is given as “Not Active”.

The term inhibition denotes the share of the control response that was lost under treatment. Consider `N[C@@H](Cc1c[nH]c2ccccc12)C(=O)NCC(=O)N1CCC[C@H]1C(=O)O` (H-Trp-Gly-Pro-OH), for which the inhibition result in data set [1] was “Dose-dependent effect”. For the same compound, the IC50 in data set [1] (read-out: IC50) was found to be 0.0331 µM. Also, the equilibrium dissociation constant (Kd) in data set [2] (read-out: Kd) is 3.41 µM. Besides, the inhibition at 1000 µM in data set [3] turned out to be 75.5%. Besides, the Activity entry with SK-HEP1 is on record as “Non-toxic”.

Take `C[C@H](NC(=O)[C@@H](N)Cc1c[nH]c2ccccc12)C(=O)NCC(=O)N1CCC[C@H]1C(=O)O` (H-WAGP-OH): the IC50 result in data set [1] was “Not Active”. In data set [2], the Kd entry was “Not Active”.
